# Test results published in patent publication US10603357B2, “Therapeutic TREM-1 peptides” (Universite de Lorraine, priority 2004, dated 2020).
# Marks after values point to notes of the source that are not given here.
# What was measured:
# [1] = test system: TREM-1/TREM-1 ligand interaction; test: competition of soluble mouse TREM-1/IgG1 binding to TREM-1 ligand positive peritoneal exudate cells (flow cytometry); conditions: peptides 100 and 500 μM, pre-incubated 45 minutes on ice; 2 μg/ml mouseTREM-1/hIgG1
# Protocol: Cytofluorimetric analysis of peritoneal exudate cells with 2 μg/ml of mouseTREM-1/hIgG1 in the presence of a 500 μM solution per mouse (thin line), 100 μM solution per mouse (dotted line) or absence (thick line) of the peptides is shown. The grey histogram represents immunostaining with human IgG1 as a control.
# A possible mechanism of action could be the ability of TREM-1 derived peptide to interfere with TREM-1/TREM-1 ligand interaction. To address this question the Inventors performed competition experiments on TREM-1 ligand positive cells: PEC (Peritoneal Exudate Cells) from CLP treated mice.
# Peritoneal exudate cells (PEC) from mice suffering from a caecal ligation and puncture (CLP)-induced peritonitis were subjected to flow cytometry analysis after incubation with a PE-conjugated anti-human IgG1 (Jackson Immunoresearch, Bar Harbor, USA). Competition with TREM-1 peptides was performed by pre-incubating cells with the indicated concentrations of peptides for 45 minutes on ice before adding mTREM-1-IgG1.
# rats [2] = test: CLP polymicrobial sepsis model in rats, haemodynamic and biological measurements; format: in vivo, rat; conditions: for effect on TNF-α production: CLP (FIG. 16); for Aortic blood flow / Bicarbonate / Heart Rate / Lactate / Mesenteric blood flow / pH: CLP polymicrobial sepsis; for decline in arterial pressure over time: H16 to H24 (FIG. 15)
# Protocol: The procedure has been described in details elsewhere (see Mansart, A. et al. Shock 19:38-44 (2003)). Briefly, rats (n=6-10 per group) were anesthetized by i.p. administration of ketamine (150 mg/kg). The caecum was exposed through a 3.0-cm abdominal midline incision and subjected to a ligation of the distal half followed by two punctures with a G21 needle. A small amount of stool was expelled from the punctures to ensure […]. The caecum was replaced into the peritoneal cavity and the abdominal incision closed in two layers. After surgery, all rats were injected s.c. with 50 mL/kg of normal saline solution for fluid resuscitation. TREM-1 or scrambled peptides were then administered as above.
# (§1) Immediately after LPS administration as well as 16 hours after CLP, arterial BP (systolic, diastolic, and mean), heart rate, abdominal aortic blood flow, and mesenteric blood flow were recorded using a procedure described elsewhere (see Mansart, A. et al. Shock 19:38-44 (2003)). Briefly, the left carotid artery and the left jugular vein were cannulated with PE-50 tubing. Arterial BP was continuously monitored by a pressure transducer and an amplifier-recorder system (IOX EMKA Technologies, Paris, France). Perivascular probes (Transonic Systems, Ithaca, N.Y.) wrapped up the upper abdominal aorta and mesenteric artery, allowed to monitor their respective flows by means of a flowmeter (Transonic Systems). After the last measurement (4th hour during LPS experiments and 24th hour after CLP), animals were sacrificed by an overdose of sodium thiopental i.v.
# (§2) Blood was sequentially withdrawn from the left carotid artery. Arterial lactate concentrations and blood gases analyses were performed on an automatic blood gas analyser (ABL 735, Radiometer, Copenhagen, Denmark). Concentrations of TNF-α and IL-1β in the plasma were determined by an ELISA test (Biosource, Nivelles, Belgium) according to the recommendations of the manufacturer. Plasmatic concentrations of nitrates/nitrites were measured using the Griess reaction (R&D Systems, Abingdon, UK).
# rats [3] = test: LPS-induced endotoxinemia in rats, haemodynamic and biological measurements; format: in vivo, rat; conditions: for effect on plasma IL-1β release: LPS 15 mg/kg (FIG. 13B); for Nitrite/nitrate concentrations after LPS administration: LPS 15 mg/kg (FIG. 14); for Aortic blood flow / Heart Rate / Lactate / MAP / Mesenteric blood flow / pH (arterial): LPS-induced endotoxinemia
# Protocol: Animals were randomly grouped (n=10-20) and treated with Escherichia coli LPS (0111:B4, Sigma-Aldrich, Lyon, France) i.p. in combination with the TREM-1 or scrambled peptides.
# as §1, §2
sequence,measurement,setting,value
LQVTDSGLYRCVIYHPP [P5],inhibition of TREM-1 interaction with its ligand (mTREM-1/IgG1 binding to PEC),[1],inhibit TREM-1 interaction with its ligand in a dose dependent manner
same,effect on TNF-α production,rats [2],decrease
same,Aortic blood flow,rats [2]; H16,41 ± 14 mL/min
same,Bicarbonate,rats [2]; H16,18.6 ± 2.0 mmol/L
same,Heart Rate,rats [2]; H16,460 ± 17^b bpm
same,Lactate,rats [2]; H16,3.3 ± 0.4^b mmol/L
same,Mesenteric blood flow,rats [2]; H16,15.3 ± 3.5^b mL/min
same,pH,rats [2]; H16,7.35 ± 0.01^b
same,Aortic blood flow,rats [2]; H20,31 ± 5^b mL/min
same,Bicarbonate,rats [2]; H20,18.0 ± 0.9^a mmol/L
same,Heart Rate,rats [2]; H20,500 ± 17^b bpm
same,Lactate,rats [2]; H20,"3.6 ± 0.9^b, c mmol/L"
same,Mesenteric blood flow,rats [2]; H20,"11.0 ± 6.9^b, c mL/min"
same,pH,rats [2]; H20,7.34 ± 0.01^b
same,Aortic blood flow,rats [2]; H24,28 ± 8^b mL/min
same,Bicarbonate,rats [2]; H24,"17.1 ± 0.9^a, c mmol/L"
same,Heart Rate,rats [2]; H24,510 ± 20 bpm
same,Lactate,rats [2]; H24,"4.9 ± 1.1^b, c mmol/L"
same,Mesenteric blood flow,rats [2]; H24,"8.5 ± 3.5^b, c mL/min"
same,pH,rats [2]; H24,"7.36 ± 0.01^b, c"
same,decline in arterial pressure over time,rats [2]; CLP,almost totally abolished
same,plasmatic TNF-α,"rats [2]; CLP, by H20 (FIG. 16)",almost undetectable
same,attenuation of plasma TNF-α production,rats [3]; LPS 15 mg/kg (FIG. 13A),~30%
same,effect on plasma IL-1β release,rats [3],strongly reduced
same,Nitrite/nitrate concentrations after LPS administration,rats [3],remained stable
same,Aortic blood flow,rats [3]; H0,48 ± 9 mL/min
same,Heart Rate,rats [3]; H0,474 ± 49 bpm
same,Lactate,rats [3]; H0,3.4 ± 1.5 mmol/L
same,MAP,rats [3]; H0,115 ± 16 mmHg
same,Mesenteric blood flow,rats [3]; H0,12.8 ± 6.4 mL/min
same,pH (arterial),rats [3]; H0,7.33 ± 0.04
same,Aortic blood flow,rats [3]; H1,32 ± 8 mL/min
same,Heart Rate,rats [3]; H1,498 ± 26 bpm
same,Lactate,rats [3]; H1,5.4 ± 1.4 mmol/L
same,MAP,rats [3]; H1,99 ± 22 mmHg
same,Mesenteric blood flow,rats [3]; H1,11.4 ± 2.7 mL/min
same,pH (arterial),rats [3]; H1,7.28 ± 0.06
same,Aortic blood flow,rats [3]; H2,23 ± 4 ^b mL/min
same,Heart Rate,rats [3]; H2,510 ± 42 bpm
same,Lactate,rats [3]; H2,5.5 ± 1.6 mmol/L
same,MAP,rats [3]; H2,101 ± 18 mmHg
same,Mesenteric blood flow,rats [3]; H2,9.2 ± 1.9 mL/min
same,pH (arterial),rats [3]; H2,7.32 ± 0.07
same,Aortic blood flow,rats [3]; H3,20 ± 7 ^b mL/min
same,Heart Rate,rats [3]; H3,517 ± 62 bpm
same,Lactate,rats [3]; H3,5.9 ± 1.7 ^b mmol/L
same,MAP,rats [3]; H3,93 ± 21 ^b mmHg
same,Mesenteric blood flow,rats [3]; H3,6.0 ± 0.8 mL/min
same,pH (arterial),rats [3]; H3,7.29 ± 0.11
same,Aortic blood flow,rats [3]; H4,15 ± 6 ^b mL/min
same,Heart Rate,rats [3]; H4,510 ± 26 bpm
same,Lactate,rats [3]; H4,7.4 ± 1.8 ^b mmol/L
same,MAP,rats [3]; H4,89 ± 10 ^b mmHg
same,Mesenteric blood flow,rats [3]; H4,5.0 ± 1.0 mL/min
same,pH (arterial),rats [3]; H4,7.28 ± 0.12 ^b
LVVTQRPFTRPSEVHMGKFTLKH (listed as Mus musculus) [P1],inhibition of TREM-1 interaction with its ligand (mTREM-1/IgG1 binding to PEC),[1],inhibit TREM-1 interaction with its ligand in a dose dependent manner
same,effect on TNF-α production,rats [2],decrease
same,Aortic blood flow,rats [2]; H16,41 ± 12 mL/min
same,Bicarbonate,rats [2]; H16,16.8 ± 4.4 mmol/L
same,Heart Rate,rats [2]; H16,462 ± 16^a bpm
same,Lactate,rats [2]; H16,4.9 ± 0.4 mmol/L
same,Mesenteric blood flow,rats [2]; H16,13.5 ± 7.2 mL/min
same,pH,rats [2]; H16,7.32 ± 0.04
same,Aortic blood flow,rats [2]; H20,28 ± 17^a mL/min
same,Bicarbonate,rats [2]; H20,16.0 ± 5.4^b mmol/L
same,Heart Rate,rats [2]; H20,480 ± 30^a bpm
same,Lactate,rats [2]; H20,"5.3 ± 1.1^a, c mmol/L"
same,Mesenteric blood flow,rats [2]; H20,5.3 ± 3.0^c mL/min
same,pH,rats [2]; H20,7.31 ± 0.18^a
same,Aortic blood flow,rats [2]; H24,22 ± 16^a mL/min
same,Bicarbonate,rats [2]; H24,11.2 ± 0.8^c mmol/L
same,Heart Rate,rats [2]; H24,420 ± 30 bpm
same,Lactate,rats [2]; H24,"6.8 ± 0.9^a, c mmol/L"
same,Mesenteric blood flow,rats [2]; H24,4.5 ± 2.1^c mL/min
same,pH,rats [2]; H24,"7.24 ± 0.06^a, c"
same,decline in arterial pressure over time,rats [2]; CLP,almost totally abolished
same,effect on LPS-induced plasma TNF-α production,rats [3]; LPS 15 mg/kg (FIG. 13A),no effect
same,effect on plasma IL-1β release,rats [3],"delayed the IL-1β peak until the third hour after LPS injection, but without attenuation"
same,Nitrite/nitrate concentrations after LPS administration,rats [3],increased rapidly
same,Aortic blood flow,rats [3]; H0,49 ± 11 mL/min
same,Heart Rate,rats [3]; H0,464 ± 25 bpm
same,Lactate,rats [3]; H0,2.7 ± 0.1 mmol/L
same,MAP,rats [3]; H0,116 ± 10 mmHg
same,Mesenteric blood flow,rats [3]; H0,12.0 ± 3.7 mL/min
same,pH (arterial),rats [3]; H0,7.32 ± 0.04
same,Aortic blood flow,rats [3]; H1,39 ± 12 ^a mL/min
same,Heart Rate,rats [3]; H1,492 ± 26 bpm
same,Lactate,rats [3]; H1,4.9 ± 1.1 mmol/L
same,MAP,rats [3]; H1,119 ± 14 mmHg
same,Mesenteric blood flow,rats [3]; H1,10.5 ± 1.7 mL/min
same,pH (arterial),rats [3]; H1,7.29 ± 0.04
same,Aortic blood flow,rats [3]; H2,26 ± 14 ^a mL/min
same,Heart Rate,rats [3]; H2,492 ± 26 bpm
same,Lactate,rats [3]; H2,5.0 ± 0.9 mmol/L
same,MAP,rats [3]; H2,113 ± 21 mmHg
same,Mesenteric blood flow,rats [3]; H2,7.7 ± 2.7 mL/min
same,pH (arterial),rats [3]; H2,7.30 ± 0.01
same,Aortic blood flow,rats [3]; H3,22 ± 8 ^a mL/min
same,Heart Rate,rats [3]; H3,480 ± 30 bpm
same,Lactate,rats [3]; H3,5.7 ± 0.7 ^a mmol/L
same,MAP,rats [3]; H3,97 ± 29 ^a mmHg
same,Mesenteric blood flow,rats [3]; H3,5.0 ± 1.0 mL/min
same,pH (arterial),rats [3]; H3,7.26 ± 0.06
same,Aortic blood flow,rats [3]; H4,16 ± 6 ^a mL/min
same,Heart Rate,rats [3]; H4,480 ± 20 bpm
same,Lactate,rats [3]; H4,7.9 ± 1.7 ^a mmol/L
same,MAP,rats [3]; H4,92 ± 7 ^a mmHg
same,Mesenteric blood flow,rats [3]; H4,4.8 ± 0.9 mL/min
same,pH (arterial),rats [3]; H4,7.26 ± 0.08 ^a
